Consider one substance from patent publication US8575097B2, “Exendin variant and conjugate thereof” (Pegbio Co., Ltd., priority 2009, dated 2013).

This experiment in a line: Effect on body weight of guinea pigs (Example 23). It counts as in vivo, guinea pig. The note with it: 4 days after two successive dosing, 100 μg/kg s.c. (albumin 80 mg/kg), compared with saline group. The source says:
44 male healthy guinea pigs were provided, and the body weight of each guinea pig was about 300 g.

For the substance “chicken ovalbumin [chicken ovalbumin, albumin group in the guinea pig allergy test]”, the “decrease of body weight” value is “did not decrease”.
